Data set [1] deals with T1, Serine/threonine-protein kinase Sgk1 (Homo sapiens) (UniProt O00141).
T1 sequence (whole entry): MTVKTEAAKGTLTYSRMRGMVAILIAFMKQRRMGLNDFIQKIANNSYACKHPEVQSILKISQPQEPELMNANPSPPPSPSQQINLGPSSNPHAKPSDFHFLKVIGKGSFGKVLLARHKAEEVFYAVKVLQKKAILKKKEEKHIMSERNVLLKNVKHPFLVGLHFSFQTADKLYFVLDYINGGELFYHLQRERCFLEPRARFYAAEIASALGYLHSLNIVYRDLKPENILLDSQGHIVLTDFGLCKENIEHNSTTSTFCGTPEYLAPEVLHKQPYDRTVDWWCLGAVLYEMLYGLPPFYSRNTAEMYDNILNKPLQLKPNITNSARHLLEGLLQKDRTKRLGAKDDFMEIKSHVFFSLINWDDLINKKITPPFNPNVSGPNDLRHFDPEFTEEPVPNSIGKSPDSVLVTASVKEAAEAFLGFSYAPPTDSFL
Description: Inhibition of constitutively active SGK1 expressed in human HEK293 cells assessed as inhibition of FOXO3a phosphorylation at Thr 32 after 40 hrs. In kind it is cell-based.

The subject of data set [2] is T2, Serine/threonine-protein kinase Sgk1 (Homo sapiens), O00141 [S422D].
T2 sequence (whole entry): T1 sequence (whole entry) with S422D
Put plainly: Inhibition of SGK1 S422D mutant expressed in human HEK293 cells assessed as inhibition of FOXO3a phosphorylation at Thr 32 after 40 hrs. The data set is classed as cell-based.

Data set [3] has as its system HEK293. Description: Induction of vacuolization in human HEK293 cells at >1 uM. In kind it is cell-based.
Data set [4] deals with T3, Serine/threonine-protein kinase Sgk1 (Homo sapiens, UniProt O00141).
T3 sequence (O00141 whole entry): T1 sequence (whole entry)
Put plainly: Inhibition of human recombinant SGK1.

The target in data set [5] is T1, Serine/threonine-protein kinase Sgk1 (Homo sapiens). Put plainly: Inhibition of constitutively active SGK1 expressed in human HEK293 cells assessed as inhibition of FOXO3a phosphorylation at Thr 32 at 100 uM after 40 hrs. In kind it is cell-based.
The subject of data set [6] is T2, Serine/threonine-protein kinase Sgk1 (Homo sapiens), O00141 [S422D]. Description: Inhibition of SGK1 S422D mutant expressed in human HEK293 cells assessed as inhibition of FOXO3a phosphorylation at Thr 32 at 100 uM after 40 hrs. In kind it is cell-based.
Data set [7] concerns HEK293. Description: Induction of vacuolization in human HEK293 cells up to 100 uM. In kind it is cell-based.

Where a chain is given by its changes, count along the chain named. The source made the active and inactive calls. The rule behind the calls is not given here.

Turning to `O=C(O)c1ccc(-c2c[nH]c3ncc(-c4ccccc4)cc23)cc1C1CCCC1` [GSK-650394], the inhibition result in data set [1] and in data set [2] was “Dose-dependent effect” throughout. Also, the Activity result in the data set on HEK293 [3] is reported as “Toxic”.
As for `COc1ccc(NC(=O)Cc2nc(-c3ccc([N+](=O)[O-])cc3)cs2)cc1`, the IC50 (usually the concentration at which inhibition is half-maximal) in data set [4] was found to be 60 µM. Moreover, the inhibition result in data set [5] and in data set [6] was “Active” each time. In addition, the Activity entry with HEK293 [7] is “Non-toxic”.

Source of the values: ChEMBL document CHEMBL2069276, “Identification of a novel serum and glucocorticoid regulated kinase-1 (SGK1) ligand from virtual screening” (Bioorg Med Chem Lett, 2012).
